Data as given in patent US20260364080A1, “PYRAZOLO-PYRIMIDINONE COMPOUNDS FOR USE IN METHODS OF INHIBITING WEE1 A KINASE” (Acrivon Therapeutics, Inc., priority 2023, published 2026).
Where two headings read alike, the source gives them in different places.

Key:
[1] = molecular target: T1, recombinant human Wee1A kinase (Homo sapiens, UniProt P30291); experiment: Wee1A kinase binding assay (LanthaScreen Eu time-resolved FRET)
T1 construct: full length Wee1 kinase was expressed by baculovirus in insect cells; purchased Invitrogen PV3817; host or cells: insect cells (baculovirus)
Description: This time resolved-FRET binding assay was performed in white 384-well low volume plates (Greiner, cat #784075), at room temperature in kinase buffer A (KBA; Invitrogen cat #PV3189), consisting of 50 mM HEPES-NaOH (pH 7.5), 0.01% Brij-35, 10 mM MgCl2, and 1 mM EGTA. 5 μL of compound (diluted in reaction buffer, to 1% DMSO) were added to various wells in the plate, followed by 5 μL each of recombinant human Wee1A kinase (full length Wee1 kinase was expressed by baculovirus in insect cells using a N-terminal GST tag (MW: 99.1 kDa) (Invitrogen cat #PV3817) and LanthaScreen Eu-anti-GST antibody (Invitrogen, cat #PV5594). After this, 5 μL of kinase tracer 178 (Invitrogen, cat #PV5593) was added to the plate and the plate was incubated for 60 minutes at room temperature. The final assay conditions in each well were: 30 nM tracer 178, 5 nM Wee1A kinase and 2 nM Eu-labeled antibody in total assay volume of 15 μL. An Envision 2104 (Perkin-Elmer) Plate Reader with the following time-resolve fluorescence setting was used for performing LanthaScreen kinase binding assay. • Excitation 320 nm (30 nm bandpass) • Kinase Tracer Emission 665 nm (10 nm bandpass) • LanthaScreen Eu-anti-Tag Antibody Emission 615 nm (10 nm bandpass) • Dichroic Mirror Instrument dependent • Delay Time 100 μs • Integration Time 200 μs
(§1) To calculate the emission ratio, the acceptor/tracer emission ([…]) was divided by the antibody/donor emission ([…]) and the average of duplicate measurement was used for calculations. Data plotting, analysis of binding, and curve fitting was done using Excel add-in XLfit version 5.5.0.5 (IDBS, Guildford, United Kingdom). […] “NT” means not tested.

[2] = molecular target: T2, Myt1 kinase (recombinant PMYT-1) (Homo sapiens, UniProt Q99640); experiment: Myt1 kinase binding assay (LanthaScreen Eu Kinase Binding Assay); details: 3 nM tracer 178, 2.5 nM PMYT-1, 1 nM Eu-labeled antibody; read-out: Myt1 kinase Binding IC50
T2 construct: full length PMYT-1 was expressed by baculovirus in insect cells; purchased Invitrogen A30984; host or cells: insect cells (baculovirus)
T2 sequence (Q99640 1-499): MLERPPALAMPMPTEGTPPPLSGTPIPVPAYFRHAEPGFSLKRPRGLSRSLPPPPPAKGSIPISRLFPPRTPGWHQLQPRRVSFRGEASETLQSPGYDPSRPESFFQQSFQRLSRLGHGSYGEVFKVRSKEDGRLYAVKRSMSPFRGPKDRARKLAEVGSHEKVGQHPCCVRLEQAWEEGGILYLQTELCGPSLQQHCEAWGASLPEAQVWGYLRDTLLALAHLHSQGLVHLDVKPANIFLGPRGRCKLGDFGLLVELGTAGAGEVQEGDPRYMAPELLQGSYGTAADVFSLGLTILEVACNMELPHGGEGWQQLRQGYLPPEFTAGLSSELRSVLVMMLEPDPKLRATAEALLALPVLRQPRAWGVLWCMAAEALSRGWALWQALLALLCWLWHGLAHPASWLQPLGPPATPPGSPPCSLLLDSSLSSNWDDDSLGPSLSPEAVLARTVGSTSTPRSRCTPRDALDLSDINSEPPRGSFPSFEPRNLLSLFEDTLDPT
Description: as §1
We used a LanthaScreen Europium (Eu) Kinase Binding Assay to determine the binding affinities (IC50) of compounds to Myt1 kinase. […] “NT” designates that the compound was not tested in this assay.

[3] = molecular target: T3, Wee1A kinase (CDK1 Tyr15 phosphorylation in ACHN renal cell carcinoma cells) (Homo sapiens, UniProt P30291); experiment: High-content imaging of pCdk1 Y15, Wee1A kinase target engagement in ACHN cells; format: cell-based
T3 construct: pCDK1 Tyr15 immunofluorescence read-out
Description: Each of an ACHN renal cell carcinoma cell line (ATCC) and a DAOY medulloblastoma cell line, and an A427 lung cancer line were cultured in Minimum Essential Medium Eagle supplemented with 10% fetal calf serum (Sigma), 1% Penicillin-Streptomycin and 10 mM HEPES buffer (HyClone). Cell cultures were kept in a humidified incubator at 37 °C and 5% CO2. Cells were routinely tested for Mycoplasma contamination.
For target engagement assessment of Wee1A kinase inhibition, high-content imaging of ACHN renal cell carcinoma cells was used for quantification of CDK1 phosphorylated on tyrosine 15 by immunofluorescence (“IF”). 20,000 cells per well were seeded in tissue culture treated 96 well plates and treated with compounds at concentrations ranging from 7 to 5,000 nM or from 0.3 to 200 nM for 4h. Cells were fixated for 15 minutes in 4% paraformaldehyde solution, washed in PBS and permeabilized using 0.2% Triton X-100. Blocking was performed for 1 h at RT using Blocker FL Fluorescent Blocking Buffer (Thermo Scientific), thereafter cells were incubated with primary antibody (rabbit anti-pCDK1 Y^15, #4539, Cell Signaling Technology) at 4 °C ON. Alexa Fluor Plus 647 labelled goat anti-rabbit (A32733, Thermo Scientific) was used as secondary antibody. After washing in PBS, nuclei were stained with DAPI solution for 10 min at RT, protected from light. Cells were imaged using an ImageXpress Pico automated imaging system and CellReporter Xpress software (Molecular Devices). The percentage of cells with nuclear positivity for pCdk1 Y^15 compared to DMSO control was determined for each well and drug dose response curves and EC50 values were calculated and visualized using GraphPad Prism. Target engagement for Wee1A kinase can also be measured using the same AlphaLISA assay in OVCAR3 cells, an ovarian cancer cell line. NIH:OVCAR-3 (OVCAR3) cells are cultured in RPMI-1640 medium supplemented with 0.01 mg/ml insulin, 20% FBS, 1% Penicillin-Streptomycin and 10 mM HEPES buffer. 14,000 cells per well are seeded into 96 well tissue culture plates in full medium. Twenty-four hours post seeding, cells are treated with compound for 4 hours at concentrations ranging from 0.017 nM to 1000 nM.

[4] = 30 nM tracer 178, 5 nM Wee1A kinase, 2 nM Eu-labeled antibody, 60 minutes at room temperature, read-out: Wee1A kinase Binding IC50
[5] = 4 h treatment, nuclear positivity for pCdk1 Y15 vs DMSO control, read-out: CDK1 Tyr15 Phosphorylation EC50
[6] = read-out: CDK1 Tyr15 Phosphorylation EC50, 4 h treatment, nuclear positivity for pCdk1 Y15 vs DMSO control

T1 sequence (P30291 whole entry): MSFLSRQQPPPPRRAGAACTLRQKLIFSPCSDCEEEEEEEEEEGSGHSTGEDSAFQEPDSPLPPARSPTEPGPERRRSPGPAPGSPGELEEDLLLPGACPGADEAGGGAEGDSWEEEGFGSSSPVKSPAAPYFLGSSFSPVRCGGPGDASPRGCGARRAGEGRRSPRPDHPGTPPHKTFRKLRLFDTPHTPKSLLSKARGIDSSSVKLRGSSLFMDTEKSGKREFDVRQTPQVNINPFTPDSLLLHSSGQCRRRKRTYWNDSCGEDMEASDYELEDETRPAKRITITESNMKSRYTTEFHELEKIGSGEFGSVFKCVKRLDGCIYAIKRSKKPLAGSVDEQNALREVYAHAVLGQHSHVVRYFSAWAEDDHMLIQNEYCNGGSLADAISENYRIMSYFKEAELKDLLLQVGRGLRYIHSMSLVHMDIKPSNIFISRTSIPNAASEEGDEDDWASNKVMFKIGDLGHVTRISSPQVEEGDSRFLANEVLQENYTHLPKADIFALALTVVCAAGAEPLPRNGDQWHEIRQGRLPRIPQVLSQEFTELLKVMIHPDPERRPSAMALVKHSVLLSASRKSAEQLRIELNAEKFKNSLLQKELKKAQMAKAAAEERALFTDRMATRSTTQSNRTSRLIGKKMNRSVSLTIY
T3 sequence (P30291 whole entry): as above

SMILES	IC50 [1, 4] [nM]	IC50 [2] [nM]	EC50 [3, 5] [nM]	IC50 [1] [nM]	EC50 [3, 6] [nM]
C=CCn1c(=O)c2cnc(Nc3ccc(Cl)cc3)nc2n1-c1cccc(O[C@H]2CCCN(C)C2)n1 [Compound 162, 6-[(4-chlorophenyl)amino]-1-(6-{[(3S)-1-methylpiperidin-3-yl]oxy}pyridin-2-yl)-2-(prop-2-en-1-yl)-1H,2H,3H-pyrazolo[3,4-d]pyrimidin-3-one]	10 to 100	100 to 500	–	–	–
C=CCn1c(=O)c2cnc(Nc3ccc(Cl)cc3)nc2n1-c1cccc(N(C)[C@@H]2CCCN(C)C2)n1 [Compound 163, (R)-2-allyl-6-((4-chlorophenyl)amino)-1-(6-(methyl(1-methylpiperidin-3-yl)amino)pyridin-2-yl)-1,2-dihydro-3H-pyrazolo[3,4-d]pyrimidin-3-one]	10 to 100	> 500	–	–	–
C=CCn1c(=O)c2cnc(Nc3ccc(Cl)cc3)nc2n1-c1cccc(N(C)[C@H]2CCCN(C)C2)n1 [Compound 164, 1-(6-{[(S)-1-methyl-3-piperidyl]-N-methylamino}-2-pyridyl)-2-allyl-6-(p-chlorophenylamino)-1,2-dihydro-3H-1,2,5,7-tetraazainden-3-one]	10 to 100	> 500	–	–	–
C=CCn1c(=O)c2cnc(Nc3ccc(Cl)cc3)nc2n1-c1cccc(N[C@H]2CCCN(C)C2)n1 [Compound 167, 1-{6-[(S)-1-methyl-3-piperidylamino]-2-pyridyl}-2-allyl-6-(p-chlorophenylamino)-1,2-dihydro-3H-1,2,5,7-tetraazainden-3-one]	10 to 100	100 to 500	–	–	–
C=CCn1c(=O)c2cnc(Nc3ccc(Cl)cc3)nc2n1-c1cccc(N(C)[C@H]2CCCNC2)n1 [Compound 173, 1-{6-[N—(S)-3-piperidyl-N-methylamino]-2-pyridyl}-2-allyl-6-(p-chlorophenylamino)-1,2-dihydro-3H-1,2,5,7-tetraazainden-3-one]	10 to 100	> 500	–	–	–
C=CCn1c(=O)c2cnc(Nc3ccnc(C)c3)nc2n1-c1cccc(OC2CCN(C)CC2)c1 [Compound 219, 2-allyl-1-[m-(1-methyl-4-piperidyloxy)phenyl]-6-(2-methyl-4-pyridylamino)-1,2-dihydro-3H-1,2,5,7-tetraazainden-3-one]	< 10	–	100 to 500	–	–
C=CCn1c(=O)c2cnc(Nc3cnn(C)c3)nc2n1-c1cccc(OC2CCN(C)CC2)c1 [Compound 221, 2-allyl-1-[m-(1-methyl-4-piperidyloxy)phenyl]-6-(1-methyl-4-pyrazolylamino)-1,2-dihydro-3H-1,2,5,7-tetraazainden-3-one]	< 10	–	500 to 1000	–	–
C=CCn1c(=O)c2cnc(Nc3ccnc(C)c3)nc2n1-c1cccc(OC2CCNCC2)c1 [Compound 222, 2-allyl-6-(2-methyl-4-pyridylamino)-1-[m-(4-piperidyloxy)phenyl]-1,2-dihydro-3H-1,2,5,7-tetraazainden-3-one]	< 10	–	> 1000	–	–
C=CCn1c(=O)c2cnc(Nc3cnn(C)c3)nc2n1-c1cccc(OC2CCNCC2)c1 [Compound 224, 2-allyl-6-(1-methyl-4-pyrazolylamino)-1-[m-(4-piperidyloxy)phenyl]-1,2-dihydro-3H-1,2,5,7-tetraazainden-3-one]	< 10	–	> 1000	–	–
C=CCn1c(=O)c2cnc(Nc3ccc4c(cnn4C)c3)nc2n1-c1cccc(N(C)C2CCN(C)CC2)c1 [Compound 225, 1-{m-[N-methyl (1-methyl-4-piperidyl)amino]phenyl}-2-allyl-6-(1-methyl-1H-indazol-5-ylamino)-1,2-dihydro-3H-1,2,5,7-tetraazainden-3-one]	–	–	–	< 10	> 1000
CCn1c(=O)c2cnc(Nc3ccc4c(cnn4C)c3)nc2n1-c1cccc(N(C)C2CCNCC2)n1 [Compound 286, 1-[6-(N-methyl-N-4-piperidylamino)-2-pyridyl]-2-ethyl-6-(1-methyl-1H-indazol-5-ylamino)-1,2-dihydro-3H-1,2,5,7-tetraazainden-3-one]	–	–	–	< 10	> 1000
C=CCn1c(=O)c2cnc(Nc3cnn(C)c3)nc2n1-c1cccc(O[C@H]2C[C@@H]3CC[C@H]2CN3C)n1 [Compound 294, 6-[(1-methyl-1H-pyrazol-4-yl)amino]-1-(6-{[(1S,4S,5S)-2-methyl-2-azabicyclo[2.2.2]octan-5-yl]oxy}pyridin-2-yl)-2-(prop-2-en-1-yl)-1H,2H,3H-pyrazolo[3,4-d]pyrimidin-3-one]	10 to 100	–	–	–	–
C=CCn1c(=O)c2cnc(Nc3cnn(C)c3)nc2n1-c1cccc(O[C@@H]2C[C@@H]3CC[C@H]2CN3C)n1 [Compound 295, 6-[(1-methyl-1H-pyrazol-4-yl)amino]-1-(6-{[(1S,4S,5R)-2-methyl-2-azabicyclo[2.2.2]octan-5-yl]oxy}pyridin-2-yl)-2-(prop-2-en-1-yl)-1H,2H,3H-pyrazolo[3,4-d]pyrimidin-3-one]	10 to 100	–	–	–	–
C=CCn1c(=O)c2cnc(Nc3ccc4c(cnn4C)c3)nc2n1-c1cccc(OC2CCN(C3COC3)CC2)n1 [Compound 349, 2-allyl-6-((1-methyl-1H-indazol-5-yl)amino)-1-(6-((1-(oxetan-3-yl)piperidin-4-yl)oxy)pyridin-2-yl)-1,2-dihydro-3H-pyrazolo[3,4-d]pyrimidin-3-one]	< 10	–	< 100	–	–
C=CCn1c(=O)c2cnc(Nc3ccc4cnn(C)c4c3)nc2n1-c1cccc(OC2CCNCC2)n1 [Compound 359, 2-allyl-6-((1-methyl-1H-indazol-6-yl)amino)-1-(6-(piperidin-4-yloxy)pyridin-2-yl)-1,2-dihydro-3H-pyrazolo[3,4-d]pyrimidin-3-one]	< 10	–	< 100	–	–
C=CCn1c(=O)c2cnc(Nc3ccc4c(cnn4C)c3)nc2n1-c1cccc(OC2CCN(C)C(C)C2)n1 [Compound 402, rel-2-allyl-1-(6-(((2R,4R)-1,2-dimethylpiperidin-4-yl)oxy)pyridin-2-yl)-6-((1-methyl-1H-indazol-5-yl)amino)-1,2-dihydro-3H-pyrazolo[3,4-d]pyrimidin-3-one]	–	–	< 100	–	–
